Patent publication US10934285B2, “Compounds and compositions for inhibiting the activity of SHP2” (Novartis AG, priority 2016, dated 2021)

What follows are compounds tested against SHP2 (Homo sapiens (Human), UniProt Q06124) (assay: SHP2 Allosteric Inhibition Assay). Conditions: 0.5 nM SHP2 activated with 0.5 μM peptide IRS1_pY1172(dPEG8)pY1222; surrogate substrate DiFMUP; prompt fluorescence.
Format: biochemical
From the text: SHP2 Allosteric Inhibition Assay
SHP2 is allosterically activated through binding of bis-tyrosyl-phorphorylated peptides to its Src Homology 2 (SH2) domains. The latter activation step leads to the release of the auto-inhibitory interface of SHP2, which in turn renders the SHP2 protein tyrosine phosphatase (PTP) active and available for substrate recognition and reaction catalysis. The catalytic activity of SHP2 was monitored using the surrogate substrate DiFMUP in a prompt fluorescence assay format.
After 30-60 minutes incubation at 25° C., the surrogate substrate DiFMUP (Invitrogen, cat #D6567) was added to the reaction and incubated at 25° C. for 30 minutes. […] The inhibitor dose response curves were analyzed using normalized IC50 regression curve fitting with control based normalization.

| IC50 [nM] | Compound |
| --- | --- |
| 42 | Nc1nc(N2CCC3(CC2)CC(F)(F)C[C@H]3N)cnc1Sc1cccc(NC(=O)c2c(O)nc3n(c2=O)CCCC3)c1Cl [Example 28, (R)-N-(3-((3-amino-5-(1-amino-3,3-difluoro-8-azaspiro[4.5]decan-8-yl)pyrazin-2-yl)thio)-2-chlorophenyl)-2-hydroxy-4-oxo-6,7,8,9-tetrahydro-4H-pyrido[1,2-a]pyrimidine-3-carboxamide] |
| 12 | CC[C@@H]1OCC2(CCN(c3cnc(Sc4cccc(NC(=O)c5c(O)nc6n(c5=O)CCCC6)c4Cl)c(N)n3)CC2)[C@@H]1N [Example 29, N-(3-((3-amino-5-((3S,4S)-4-amino-3-ethyl-2-oxa-8-azaspiro[4.5]decan-8-yl)pyrazin-2-yl)thio)-2-chlorophenyl)-2-hydroxy-4-oxo-6,7,8,9-tetrahydro-4H-pyrido[1,2-a]pyrimidine-3-carboxamide] |
| 16 | C[C@@H]1CC2(CCN(c3cnc(Sc4cccc(NC(=O)c5c(O)nc6n(c5=O)CCCC6)c4Cl)c(N)n3)CC2)[C@H](N)[C@H]1F [Example 30, N-(3-((3-amino-5-((1S,2S,3R)-1-amino-2-fluoro-3-methyl-8-azaspiro[4.5]decan-8-yl)pyrazin-2-yl)thio)-2-chlorophenyl)-2-hydroxy-4-oxo-6,7,8,9-tetrahydro-4H-pyrido[1,2-a]pyrimidine-3-carboxamide] |
| 38 | CC1(CN)CCN(c2nnc(Sc3cccc(NC(=O)c4c(O)nc5ccccc5c4O)c3Cl)c(N)n2)CC1 [Example 31, N-(3-((5-amino-3-(4-(aminomethyl)-4-methylpiperidin-1-yl)-1,2,4-triazin-yl)thio)-2-chlorophenyl)-2,4-dihydroxyquinoline-3-carboxamide] |
| 8 | CC1(CN)CCN(c2nnc(Sc3cccc(NC(=O)c4c(O)nc5sccn5c4=O)c3Cl)c(N)n2)CC1 [Example 32, N-(3-((5-amino-3-(4-(aminomethyl)-4-methylpiperidin-1-yl)-1,2,4-triazin-6-yl)thio)-2-chlorophenyl)-7-hydroxy-5-oxo-5H-thiazolo[3,2-a]pyrimidine-6-carboxamide] |
| 10 | CC1(CN)CCN(c2nnc(Sc3cccc(NC(=O)c4c(O)nc5ccccn5c4=O)c3Cl)c(N)n2)CC1 [Example 33, N-(3-((5-amino-3-(4-(aminomethyl)-4-methylpiperidin-1-yl)-1,2,4-triazin-6-yl)thio)-2-chlorophenyl)-2-hydroxy-4-oxo-4H-pyrido[1,2-a]pyrimidine-3-carboxamide] |
| 14 | CC1(CN)CCN(c2nnc(Sc3cccc(NC(=O)c4c(O)nc5cnccn5c4=O)c3Cl)c(N)n2)CC1 [Example 34, N-(3-((5-amino-3-(4-(aminomethyl)-4-methylpiperidin-1-yl)-1,2,4-triazin-6-yl)thio)-2-chlorophenyl)-2-hydroxy-4-oxo-4H-pyrazino[1,2-a]pyrimidine-3-carboxamide] |
| 35 | CC1(CN)CCN(c2nnc(Sc3cccc(NC(=O)c4c(O)nc5[nH]ccn5c4=O)c3Cl)c(N)n2)CC1 [Example 35, N-(3-((5-amino-3-(4-(aminomethyl)-4-methylpiperidin-1-yl)-1,2,4-triazin-6-yl)thio)-2-chlorophenyl)-7-hydroxy-5-oxo-1,5-dihydroimidazo[1,2-a]pyrimidine-6-carboxamide] |
| 12 | CC1(CN)CCN(c2nnc(Sc3cccc(NC(=O)c4c(O)nc5n(c4=O)CCCC5)c3Cl)c(N)n2)CC1 [Example 36, N-(3-((5-amino-3-(4-(aminomethyl)-4-methylpiperidin-1-yl)-1,2,4-triazin-6-yl)thio)-2-chlorophenyl)-2-hydroxy-4-oxo-6,7,8,9-tetrahydro-4H-pyrido[1,2-a]pyrimidine-3-carboxamide] |
| 6 | CC1(CN)CCN(c2nnc(Sc3cccc(NC(=O)C4=C(O)NC5CCCCN5C4=O)c3Cl)c(N)n2)CC1 (stereo not drawn) [Example 37, N-(3-((5-amino-3-(4-(aminomethyl)-4-methylpiperidin-1-yl)-1,2,4-triazin-6-yl)thio)-2-chlorophenyl)-2-hydroxy-4-oxo-4,6,7,8,9,9a-hexahydro-1H-pyrido[1,2-a]pyrimidine-3-carboxamide] |
| 13 | CC1(CN)CCN(c2nnc(Sc3cccc(NC(=O)c4c(O)nc5c6ccccc6ccn5c4=O)c3Cl)c(N)n2)CC1 [Example 39, N-(3-((5-amino-3-(4-(aminomethyl)-4-methylpiperidin-1-yl)-1,2,4-triazin-6-yl)thio)-2-chlorophenyl)-2-hydroxy-4-oxo-4H-pyrimido[2,1-a]isoquinoline-3-carboxamide] |
| 173 | CC1(CN)CCN(c2nnc(Sc3cccc(NC(=O)c4ccc5ccccn5c4=O)c3Cl)c(N)n2)CC1 [Example 40, N-(3-((5-amino-3-(4-(aminomethyl)-4-methylpiperidin-1-yl)-1,2,4-triazin-6-yl)thio)-2-chlorophenyl)-4-oxo-4H-quinolizine-3-carboxamide] |
| 11 | CC1(N)CCN(c2nnc(Sc3cccc(NC(=O)c4c(O)nc5ccccn5c4=O)c3Cl)c(N)n2)CC1 [Example 41, N-(3-((5-amino-3-(4-amino-4-methylpiperidin-1-yl)-1,2,4-triazin-6-yl)thio)-2-chlorophenyl)-2-hydroxy-4-oxo-4H-pyrido[1,2-a]pyrimidine-3-carboxamide] |
| 16 | Nc1nc(N2CCC3(CCC[C@H]3N)CC2)nnc1Sc1cccc(NC(=O)c2c(O)nc3ccccn3c2=O)c1Cl [Example 42, (R)-N-(3-((5-amino-3-(1-amino-8-azaspiro[4.5]decan-8-yl)-1,2,4-triazin-6-yl)thio)-2-chlorophenyl)-2-hydroxy-4-oxo-4H-pyrido[1,2-a]pyrimidine-3-carboxamide] |
| 1.5 | Nc1nc(N2CCC3(CCC[C@H]3N)CC2)nnc1Sc1cccc(NC(=O)c2c(O)nc3n(c2=O)CCCC3)c1Cl [Example 43, (R)-N-(3-((5-amino-3-(1-amino-8-azaspiro[4.5]decan-8-yl)-1,2,4-triazin-6-yl)thio)-2-chlorophenyl)-2-hydroxy-4-oxo-6,7,8,9-tetrahydro-4H-pyrido[1,2-a]pyrimidine-3-carboxamide] |
| 14 | CC1(N)CCN(c2cnc(Sc3cccc(NC(=O)c4c(O)nc5n(c4=O)CCCC5)c3Cl)cn2)CC1 [Example 44, N-(3-((5-(4-amino-4-methylpiperidin-1-yl)pyrazin-2-yl)thio)-2-chlorophenyl)-2-hydroxy-4-oxo-6,7,8,9-tetrahydro-4H-pyrido[1,2-a]pyrimidine-3-carboxamide] |
| 7 | CC1(CN)CCN(c2cnc(Sc3cccc(NC(=O)c4c(O)nc5n(c4=O)CCCC5)c3Cl)cn2)CC1 [Example 45, N-(3-((5-(4-(aminomethyl)-4-methylpiperidin-1-yl)pyrazin-2-yl)thio)-2-chlorophenyl)-2-hydroxy-4-oxo-6,7,8,9-tetrahydro-4H-pyrido[1,2-a]pyrimidine-3-carboxamide] |
| 70 | CC1(N)CCN(c2nc3ccc(Sc4cccc(NC(=O)C5=C(O)CN(c6ccccc6)C5=O)c4)nc3[nH]2)CC1 [Example 46, N-(3-((2-(4-Amino-4-methylpiperidin-1-yl)-3H-imidazo[4,5-b]pyridin-5-yl)thio)phenyl)-4-hydroxy-2-oxo-1-phenyl-2,5-dihydro-1H-pyrrole-3-carboxamide] |
| 3 | CC1(N)CCN(c2nc3ccc(Sc4cccc(NC(=O)C5=C(O)CN(c6ccccc6)C5=O)c4Cl)nc3[nH]2)CC1 [Example 47, N-(3-((2-(4-amino-4-methylpiperidin-1-yl)-3H-imidazo[4,5-b]pyridin-5-yl)thio)-2-chlorophenyl)-4-hydroxy-2-oxo-1-phenyl-2,5-dihydro-1H-pyrrole-3-carboxamide] |
| 61 | O=C(Nc1cccc(Sc2ccc3nc(N4CCCCC4)[nH]c3n2)c1Cl)c1c(O)nc2ccccn2c1=O [Example 48, N-(2-chloro-3-((2-(piperidin-1-yl)-3H-imidazo[4,5-b]pyridin-5-yl)thio)phenyl)-2-hydroxy-4-oxo-4H-pyrido[1,2-a]pyrimidine-3-carboxamide] |
| 36 | O=C(Nc1cccc(Sc2ccc3nc(N4CCCCC4)[nH]c3n2)c1Cl)c1c(O)c2nccnc2[nH]c1=O [Example 49, N-(2-chloro-3-((2-(piperidin-1-yl)-3H-imidazo[4,5-b]pyridin-5-yl)thio)phenyl)-8-hydroxy-6-oxo-5,6-dihydropyrido[2,3-b]pyrazine-7-carboxamide] |
| 70 | CC1(N)CCN(c2cnc(Sc3ccc(NC(=O)C4=C(O)CN(c5ccccc5)C4=O)cc3Cl)c(N)n2)CC1 [Example 50, N-(4-((3-Amino-5-(4-amino-4-methylpiperidin-1-yl)pyrazin-2-yl)thio)-3-chlorophenyl)-4-hydroxy-2-oxo-1-phenyl-2,5-dihydro-1H-pyrrole-3-carboxamide] |
| 12 | CC1(CN)CCN(c2nnc(Sc3cccc(NC(=O)C4=C(O)CN(c5ccccc5)C4=O)c3Cl)c(N)n2)CC1 [Example 51, N-(3-((5-amino-3-(4-(aminomethyl)-4-methylpiperidin-1-yl)-1,2,4-triazin-6-yl)thio)-2-chlorophenyl)-4-hydroxy-2-oxo-1-phenyl-2,5-dihydro-1H-pyrrole-3-carboxamide] |

| Compound | IC50 [nM] |
| --- | --- |
| C[C@@H]1OCC2(CCN(c3cnc(Sc4cccc(NC(=O)c5c(O)nc6n(c5=O)CCCC6)c4Cl)c(N)n3)CC2)[C@@H]1N [Example 27, N-(3-((3-Amino-5-((3S,4S)-4-amino-3-methyl-2-oxa-8-azaspiro[4.5]decan-8-yl)pyrazin-2-yl)thio)-2-chlorophenyl)-2-hydroxy-4-oxo-6,7,8,9-tetrahydro-4H-pyrido[1,2-a]pyrimidine-3-carboxamide] | 23 |
